Data: BindingDB's records for doi:10.1016/S0960-894X(01)81044-1 (1991)

Tests used:
[1] = Inhibitory activity against sweet almond Beta-glucosidase
[2] = as above; remark: listed apart in the source

Row | Ki [1] [mM] | Ki [2] [mM] | Structure (SMILES)
1 | 14.8 |  | OC[C@H]1OC[C@@H](O)[C@H]1O [(2R,3R,4R)-2-Hydroxymethyl-tetrahydro-furan-3,4-diol]
2 | 36.2 |  | OC[C@H]1OC[C@@H](O)[C@@H]1O [(2R,3S,4R)-2-Hydroxymethyl-tetrahydro-furan-3,4-diol]
3 | 60 |  | OC[C@H]1OC[C@H](O)[C@@H](O)[C@@H]1O [(2R,3S,4R,5S)-2-(hydroxymethyl)oxane-3,4,5-triol]
4 | 39 |  | O[C@H]1[C@H](O)COC[C@@H]1O [(3S,4R,5R)-Tetrahydro-pyran-3,4,5-triol]
5 |  | 0.00011 | NCCc1cn(C(=O)c2ccccc2)cn1 [[4-(2-Amino-ethyl)-imidazol-1-yl]-phenyl-methanone]
